In patent US20240207264A1, “PHARMACEUTICAL COMPOSITIONS COMPRISING INHIBITORS OF THE ANDROGEN RECEPTOR AND USES THEREOF” (ESSA PHARMA INC., priority 2021, published 2024):
Entries after “also recorded” stand apart in the source; their conditions may differ.

Columns and labels:
[1] = PK study, single PO dose, rats; type: in vivo; settings: Sprague-Dawley, rat, plasma, male SD rats; for half-life: read-out: T½ (converted)
Protocol: A single PO dose of Compound A in three different formulations were administered to male Sprague-Dawley (SD) rats. Animals in Group 1 (Solution) received Compound A by oral gavage (PO) administration at 30 mg/kg, which was formulated in 4% NMP, 20% Capmul MCM, 21% Vitamin E TPGS, 55% PEG400. Animals in Group 2 (Suspension A) received Compound A by oral gavage (PO) administration at 100 mg/kg, which was formulated in SDD formulation with HPMCAS-H in 0.5% Methocel A4M in water. Mean plasma of Compound A was measured over 24-hour period after administration of Compound A (FIG. 15A) and PK parameters were determined (Table 29).

[2] = PK study, single PO dose, dogs; type: in vivo; settings: male, Beagle, dog, plasma; for half-life: read-out: T½ (converted)
Protocol: A single PO dose of Compound A in two different formulations were administered to male Beagle dogs. Mean plasma of Compound A was measured over 24-hour period after administration of Compound A (FIG. 15B) and PK parameters were determined (Table 30).

[3] = PK study, single PO dose, mice; type: in vivo; settings: male, CD-1, mouse, plasma, male CD-1 mice
Protocol: A single PO dose of Compound A in different doses in solid dispersion and at 30 mg/kg dose of Compound A in solution were administered to male CD-1 mice. Mean plasma of Compound A was measured over 24 hour period after administration of Compound A (FIG. 15C) and PK parameters were determined (Table 31).

[4] = tested on: LNCaP; experiment: LNCaP prostate cancer xenograft model; type: in vivo; settings: LNCaP (AR FL), castrated male mice, 60 mg/kg, Solution, qd24
Protocol: (§1) Compound A's activity was measured in a variety of castrate-sensitive and castrate-resistant prostate cancer (CRPC) xenograft models (Table 32).

[5] = tested on: VCaP tumors; experiment: VCaP prostate cancer xenograft model; type: in vivo, SCID Beige male mice; settings: VCaP (amplified AR, some AR-V7), castrated male mice, Solution, qd24
[6] = tested on: LNCaP95; experiment: LNCaP95 prostate cancer xenograft model; type: in vivo; settings: LNCaP95 (high level AR-V7), castrated male mice, 30 mg/kg, Solution, qd24
Protocol: as §1

[7] = tested on: 22Rv1; experiment: 22Rv1 prostate cancer xenograft model; type: in vivo; settings: 22Rv1 (high level AR-V7), castrated male mice, 30 mg/kg, Solution, qd28
Protocol: as §1

[8] = tested on: HID28; experiment: Enzalutamide resistant patient-derived xenograft (PDX) model HID28; type: in vivo, nude mice; settings: HID28 PDX (AR+ PSA+), castrated male mice, 60 mg/kg, SDD, qd28
Protocol: as §1
For example, intact male nude mice were engrafted with HID28 tumor fragments and once tumors reached ˜150 mm^3 the mice were castrated. The mice were enrolled in the experiment once the tumors started to regrow, 10 days post-castration. Compound A was tested in the HID28 PDX model at 60 mg/kg, QD for 28 days using SDD formulation with HPMCAS-H in 0.5% Methocel A4M in water.
Mean tumor volume in castrated nude mice bearing enzalutamide resistant patient-derived xenograft (PDX) model HID28 was measured after oral treatment with solid dispersion composition of Compound A or enzalutamide for 28 days (n=6-7 per group) is shown in FIG. 16B.

[9] = tested on: PC-3; experiment: PC-3 prostate cancer xenograft model; type: in vivo; settings: PC-3 (non functional AR), intact male mice, 30 mg/kg, Solution, qd28
Protocol: as §1

[10] = Phase I clinical study, safety (DLT); type: in vivo, human
Protocol: (§2) Phase I clinical research study of Compound A is studied as a treatment for patients with prostate cancer. All patients in the study receives Compound A at a once daily oral dose of 200 mg, 400 mg, 600 mg, 800 mg, or 1000 mg. Compound A in this study is provided as an SDD composition with HPMCAS-H. One cycle of treatment is 28 days of dosing.
The primary safety variable for Part 1a of the study is the incidence of protocol-defined dose limiting toxicity (DLT) during the DLT assessment period (first 28 days of dosing). The DLTs will be characterized by type, frequency, severity (as graded by National Cancer Institute Common Terminology Criteria for AEs [NCI CTCAE version 5.0]), timing, seriousness, and relationship to study drug.

[11] = tested on: serum prostate specific antigen (PSA); experiment: Phase I clinical study, serum PSA; type: in vivo, human; settings: 200 mg/day
Protocol: as §2
The primary efficacy variable for Part 1b of the study is the proportion of patients with a decline from baseline in prostate specific antigen (PSA) blood concentrations of ≥50% at any time point during daily dosing with Compound A,
The study is still on-going with other dose levels.

[12] = PO 30 mg/kg, Solution (4% NMP, 20% Capmul MCM, 21% Vitamin E TPGS, 55% PEG400)
[13] = PO 100 mg/kg, Suspension A (SDD with HPMCAS-H in 0.5% Methocel A4M in water)
[14] = 50 mg/kg, PO 50 mg/kg, Solution (5% NMP, 20% vitamin E TPGS, 20% PEG 300, 0.5% SLS, 1.09% HPMCAS-H, 53.91% water)
[15] = 50 mg/kg, PO 50 mg/kg, Suspension A (SDD)
[16] = 100 mg/kg, PO 100 mg/kg, Suspension A (SDD)
[17] = 10 mg/kg, PO 10 mg/kg, Suspension A (SDD)
[18] = 30 mg/kg, PO 30 mg/kg, Solution (9% DMSO, 9% NMP, 27% solutol, 55% PEG400)
[19] = 30 mg/kg, PO 30 mg/kg, Suspension A (SDD)
[20] = 90 mg/kg, PO 90 mg/kg, Suspension A (SDD)
[21] = 270 mg/kg, PO 270 mg/kg, Suspension A (SDD)
[22] = 3 subjects, 28 day dosing at 200 mg/day

CC(C)(c1ccc(OCc2ccnc(NS(C)(=O)=O)n2)cc1)c1cc(Cl)c(OCCCl)c(C#N)c1 [Compound A, N-(4-((4-(2-(3-chloro-4-(2-chloroethoxy)-5-cyanophenyl)propan-2-yl)phenoxy)methyl)pyrimidin-2-yl)methanesulfonamide]
AUC(0-t) [1, 12]: 399 µg·h/mL
Cmax [1, 12]: 26.8 µg/mL
Tmax [1, 12]: 9.3 h
half-life [1, 12]: 7.6 h
AUC(0-t) [1, 13]: 1180 µg·h/mL
Cmax [1, 13]: 89.8 µg/mL
Tmax [1, 13]: 5.3 h
half-life [1, 13]: 6.2 h
AUC(0-t) [2, 14]: 648 µg·h/mL
Cmax [2, 14]: 45.8 µg/mL
Tmax [2, 14]: 2 h
half-life [2, 14]: 21.9 h
AUC(0-t) [2, 15]: 845 µg·h/mL
Cmax [2, 15]: 55.5 µg/mL
Tmax [2, 15]: 3.3 h
half-life [2, 15]: 16.2 h
AUC(0-t) [2, 16]: 1450 µg·h/mL
Cmax [2, 16]: 80.6 µg/mL
Tmax [2, 16]: 5.3 h
half-life [2, 16]: 24 h
AUC(0-inf) [3, 17]: 189 µg·h/mL
AUC(0-t) [3, 17]: 177 µg·h/mL
Cmax [3, 17]: 14.3 µg/mL
AUC(0-inf) [3, 18]: 352 µg·h/mL
AUC(0-t) [3, 18]: 336 µg·h/mL
Cmax [3, 18]: 32 µg/mL
AUC(0-inf) [3, 19]: 604 µg·h/mL
AUC(0-t) [3, 19]: 565 µg·h/mL
Cmax [3, 19]: 45.9 µg/mL
AUC(0-inf) [3, 20]: 1700 µg·h/mL
AUC(0-t) [3, 20]: 1570 µg·h/mL
Cmax [3, 20]: 110 µg/mL
AUC(0-inf) [3, 21]: 2690 µg·h/mL
AUC(0-t) [3, 21]: 2310 µg·h/mL
Cmax [3, 21]: 162 µg/mL
TGI (Tumor Growth Inhibition) [4]: 93%
TGI (Tumor Growth Inhibition) ([5]; 3 mg/kg): 54%
TGI (Tumor Growth Inhibition) ([5]; 10 mg/kg): 95%
TGI (Tumor Growth Inhibition) ([5]; 30 mg/kg): >100%
TGI (Tumor Growth Inhibition) [6]: 54%
TGI (Tumor Growth Inhibition) [7]: 48%
TGI (Tumor Growth Inhibition) [8]: 58%
TGI (Tumor Growth Inhibition) [9]: 0%
tolerability ([10]; 200 mg/day): well tolerated
dose limiting toxicity (DLT) [10, 22]: No DLTs were observed; also recorded: No dose limiting toxicity was observed
severe adverse events [10, 22]: no severe adverse events were observed
Serum PSA level decline ([11]; one subject, after 3 cycles (12 weeks)): > 50%
Serum PSA levels ([11]; two other subjects): showed increase
